This passage reports IC50 results from patent publication US7425563B2, “4-(Substituted aryl)-5-hydroxyisoquinolinone derivative” (Kyorin Pharmaceutical Co., Ltd., priority 2002, dated 2008).

The target in the assay is T1, PARP (Homo sapiens, UniProt P09874).
T1 construct: purchased Trevigen 4667-050-01
T1 sequence (P09874 whole entry): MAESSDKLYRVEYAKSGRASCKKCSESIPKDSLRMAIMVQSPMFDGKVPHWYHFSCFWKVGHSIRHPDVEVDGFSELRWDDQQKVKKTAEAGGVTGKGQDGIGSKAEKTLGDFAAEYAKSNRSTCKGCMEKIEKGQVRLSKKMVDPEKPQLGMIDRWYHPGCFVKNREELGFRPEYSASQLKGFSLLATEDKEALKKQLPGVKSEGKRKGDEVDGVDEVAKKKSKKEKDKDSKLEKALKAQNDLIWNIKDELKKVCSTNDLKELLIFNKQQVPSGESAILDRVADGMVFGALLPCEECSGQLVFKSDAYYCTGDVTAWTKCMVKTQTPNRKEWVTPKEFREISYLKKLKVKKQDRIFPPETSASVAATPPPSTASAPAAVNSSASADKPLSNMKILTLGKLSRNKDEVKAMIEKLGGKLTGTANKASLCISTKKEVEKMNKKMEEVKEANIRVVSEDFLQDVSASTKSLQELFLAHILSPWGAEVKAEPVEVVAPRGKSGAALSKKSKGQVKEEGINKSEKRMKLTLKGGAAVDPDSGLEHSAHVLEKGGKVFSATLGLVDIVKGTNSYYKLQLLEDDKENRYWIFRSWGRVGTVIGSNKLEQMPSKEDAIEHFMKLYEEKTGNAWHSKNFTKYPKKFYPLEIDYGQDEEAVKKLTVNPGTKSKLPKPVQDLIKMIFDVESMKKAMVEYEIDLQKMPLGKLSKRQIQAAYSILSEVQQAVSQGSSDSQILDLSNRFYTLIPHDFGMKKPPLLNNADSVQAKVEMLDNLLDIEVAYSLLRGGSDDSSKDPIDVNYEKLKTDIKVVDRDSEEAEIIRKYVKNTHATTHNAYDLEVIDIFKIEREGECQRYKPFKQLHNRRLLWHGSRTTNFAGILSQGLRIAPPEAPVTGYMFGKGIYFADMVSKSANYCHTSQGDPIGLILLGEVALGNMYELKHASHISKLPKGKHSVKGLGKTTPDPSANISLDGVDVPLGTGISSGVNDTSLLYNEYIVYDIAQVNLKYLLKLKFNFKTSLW
Briefly: Inhibitory experiment against PARP activity. Type of assay: biochemical. Particulars: PARP (Trevigen), [14C]NAD, activated DNA, 25° C., 10 minutes; concentration decreasing enzyme activity to 50%. As for the experimental part:
After mixing well, the contents were warmed to 25° C. in a water bath. After 10 minutes, the reaction was stopped by adding 1 mL of ice-cold 20% trichloroacetic acid and the test tube was left on ice. The precipitates were collected on a glass fiber filter by suction filtration and washed 5 times with 5% trichloroacetic acid. The radioactivity on the filter was measured with liquid scintillation counter.
For orientation: IC50 means the point on the concentration scale where inhibition reaches its midpoint. Low values mean greater potency, high ones weaker potency. In the case of `CN(CCc1ccccc1)Cc1ccc(-c2c[nH]c(=O)c3cccc(O)c23)cc1` [Example 19], the IC50 is 41 nM.
As for `O=c1[nH]cc(-c2ccc(CN3CCCC3)cc2)c2c(O)cccc12` [Example 32], the IC50 was determined as 33 nM.
Under `CN(CCCc1ccccc1)Cc1ccc(-c2c[nH]c(=O)c3cccc(O)c23)cc1` [Example 21] stands 47 nM; under `O=c1[nH]cc(-c2ccc(CN3CC=C(c4ccccc4)CC3)cc2)c2c(O)cccc12` [Example 61, 1,2-Dihydro-5-hydroxy-1-oxo-4-[4-[(4-phenyl-1,2,3,6-tetrahydropyridine-1-yl)methyl]phenyl]isoquinoline], 20 nM.
Compound `CN(Cc1ccc(-c2c[nH]c(=O)c3cccc(O)c23)cc1)CC1CCCCC1` [Example 23] had an IC50 of 126 nM.
Turning to `CN(Cc1ccccc1)Cc1ccc(-c2c[nH]c(=O)c3cccc(O)c23)cc1` [Example 12], the IC50 is 54 nM.
